Data on 5 cell lines can be found in the supplement of paper PMC10307832.

Common to all, as to assay: relative viability (nuclei count vs DMSO), 5 days (fraction); higher = more cells survive
Compound in the assay “Adavosertib + Phenformin”: C=CCn1c(=O)c2cnc(Nc3ccc(N4CCN(C)CC4)cc3)nc2n1-c1cccc(C(C)(C)O)n1 [Adavosertib] + N=C(N)NC(=N)NCCc1ccccc1 [Phenformin] (partner 250 µM)
The essentials:
(§1)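 Lung cancer cell lines, seeded in 1536-well plates, were treated the following day by pin tool with a single drug or with five library-drug doses (not always all listed) in √10 steps on top of a fixed anchor-drug dose. Cells were fixed and nuclei stained in one step after 5 days, and nuclei were counted. Relative viability is the nuclei count for treated wells divided by that for vehicle wells, reported as medians of duplicate plates.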

Compound in the assay “Nelarabine + Bortezomib”: COc1nc(N)nc2c1ncn2[C@@H]1O[C@H](CO)[C@@H](O)[C@@H]1O [Nelarabine] + CC(C)C[C@H](NC(=O)[C@H](Cc1ccccc1)NC(=O)c1cnccn1)B(O)O [Bortezomib] (partner 0.002 µM)
Summed up:
as §1

Compound in the assay “Adavosertib + Trametinib”: C=CCn1c(=O)c2cnc(Nc3ccc(N4CCN(C)CC4)cc3)nc2n1-c1cccc(C(C)(C)O)n1 [Adavosertib] + CC(=O)Nc1cccc(-n2c(=O)n(C3CC3)c(=O)c3c(Nc4ccc(I)cc4F)n(C)c(=O)c(C)c32)c1 [Trametinib] (partner 0.02 µM)
Summed up: as §1

Compound in the assay “Nelarabine + Vorinostat”: COc1nc(N)nc2c1ncn2[C@@H]1O[C@H](CO)[C@@H](O)[C@@H]1O [Nelarabine] + O=C(CCCCCCC(=O)Nc1ccccc1)NO [Vorinostat] (partner 1 µM)
The essentials:
as §1

As to LOU-NH91, the relative viability with Adavosertib + Phenformin (first compound 0.01 µM) came to 0.661; in the assay with Adavosertib + Phenformin (first compound 0.03162 µM) it was 0.743; with Adavosertib + Phenformin (first compound 0.1 µM) it was 0.687; with Adavosertib + Phenformin (first compound 0.3162 µM) it was 0.725; in the assay with Nelarabine + Bortezomib (first compound 0.01 µM) it was 0.447; in the assay with Nelarabine + Bortezomib (first compound 0.03162 µM) it was 0.519. For the same cell line, the relative viability stood at 0.553 with Nelarabine + Bortezomib (first compound 0.1 µM); 0.474 in the assay with Nelarabine + Bortezomib (first compound 0.3162 µM); 0.513 with Nelarabine + Bortezomib (first compound 1 µM); 0.773 in the assay with Adavosertib + Trametinib (first compound 0.01 µM); 0.799 with Adavosertib + Trametinib (first compound 0.03162 µM); 0.828 with Adavosertib + Trametinib (first compound 0.1 µM). Also, the relative viability with Adavosertib + Trametinib (first compound 0.3162 µM) is 0.774; with Nelarabine + Vorinostat (first compound 0.01 µM) it was 0.993; in the assay with Nelarabine + Vorinostat (first compound 0.03162 µM), 0.814; with Nelarabine + Vorinostat (first compound 0.1 µM) it was 0.889; with Nelarabine + Vorinostat (first compound 0.3162 µM), 0.931; with Nelarabine + Vorinostat (first compound 1 µM), 0.873.

Take RERF-LC-KJ: the relative viability with Adavosertib + Phenformin (first compound 0.01 µM) is 0.363; with Adavosertib + Phenformin (first compound 0.03162 µM), 0.381; with Adavosertib + Phenformin (first compound 0.1 µM) it was 0.4; with Adavosertib + Phenformin (first compound 0.3162 µM), 0.439; in the assay with Nelarabine + Bortezomib (first compound 0.01 µM) it was 1.03; in the assay with Nelarabine + Bortezomib (first compound 0.03162 µM), 1.39. Also, the relative viability with Nelarabine + Bortezomib (first compound 0.1 µM) amounted to 1.24; with Nelarabine + Bortezomib (first compound 0.3162 µM), 1.29; in the assay with Nelarabine + Bortezomib (first compound 1 µM), 1.33; with Adavosertib + Trametinib (first compound 0.01 µM) it was 0.782; with Adavosertib + Trametinib (first compound 0.03162 µM), 0.853; in the assay with Adavosertib + Trametinib (first compound 0.1 µM), 0.851. The relative viability with Adavosertib + Trametinib (first compound 0.3162 µM) was determined as 0.929; with Nelarabine + Vorinostat (first compound 0.01 µM), 0.749; in the assay with Nelarabine + Vorinostat (first compound 0.03162 µM) it was 0.754; with Nelarabine + Vorinostat (first compound 0.1 µM), 0.623; with Nelarabine + Vorinostat (first compound 0.3162 µM), 0.72; with Nelarabine + Vorinostat (first compound 1 µM), 0.727.

On to NCI-H1666, for which the relative viability in the assay with Adavosertib + Phenformin (first compound 0.01 µM) came to 0.549; with Adavosertib + Phenformin (first compound 0.03162 µM), 0.562; in the assay with Adavosertib + Phenformin (first compound 0.1 µM) it was 0.636; with Adavosertib + Phenformin (first compound 0.3162 µM), 0.594; with Nelarabine + Bortezomib (first compound 0.01 µM), 1.02; in the assay with Nelarabine + Bortezomib (first compound 0.03162 µM), 1.02. In addition, the relative viability with Nelarabine + Bortezomib (first compound 0.1 µM) came out at 0.747; with Nelarabine + Bortezomib (first compound 0.3162 µM) it was 0.89; with Nelarabine + Bortezomib (first compound 1 µM), 0.789; with Adavosertib + Trametinib (first compound 0.01 µM), 0.797; in the assay with Adavosertib + Trametinib (first compound 0.03162 µM), 0.782; with Adavosertib + Trametinib (first compound 0.1 µM), 1.02. The relative viability with Adavosertib + Trametinib (first compound 0.3162 µM) was 0.813; with Nelarabine + Vorinostat (first compound 0.01 µM), 1.03; in the assay with Nelarabine + Vorinostat (first compound 0.03162 µM), 1.03; in the assay with Nelarabine + Vorinostat (first compound 0.1 µM) it was 1.18; with Nelarabine + Vorinostat (first compound 0.3162 µM), 1.09; with Nelarabine + Vorinostat (first compound 1 µM), 0.964.

Take NCI-H322M: the relative viability with Adavosertib + Phenformin (first compound 0.01 µM) turned out to be 0.737; with Adavosertib + Phenformin (first compound 0.03162 µM) it was 0.759; with Adavosertib + Phenformin (first compound 0.1 µM), 0.656; with Adavosertib + Phenformin (first compound 0.3162 µM), 0.342; with Nelarabine + Bortezomib (first compound 0.01 µM), 1.29; in the assay with Nelarabine + Bortezomib (first compound 0.03162 µM) it was 1.2. The relative viability with Nelarabine + Bortezomib (first compound 0.1 µM) was 1.18; with Nelarabine + Bortezomib (first compound 0.3162 µM), 1.28; in the assay with Nelarabine + Bortezomib (first compound 1 µM), 1.46; in the assay with Adavosertib + Trametinib (first compound 0.01 µM), 0.48; with Adavosertib + Trametinib (first compound 0.03162 µM), 0.489; with Adavosertib + Trametinib (first compound 0.1 µM), 0.471. Besides, the relative viability was 0.389 with Adavosertib + Trametinib (first compound 0.3162 µM); 0.942 with Nelarabine + Vorinostat (first compound 0.01 µM); 0.856 with Nelarabine + Vorinostat (first compound 0.03162 µM); 0.954 with Nelarabine + Vorinostat (first compound 0.1 µM); 0.943 in the assay with Nelarabine + Vorinostat (first compound 0.3162 µM); 0.802 in the assay with Nelarabine + Vorinostat (first compound 1 µM).

Consider HCC-366, for which the relative viability with Adavosertib + Phenformin (first compound 0.01 µM) was 0.622; in the assay with Adavosertib + Phenformin (first compound 0.03162 µM), 0.678; in the assay with Adavosertib + Phenformin (first compound 0.1 µM), 0.626; with Adavosertib + Phenformin (first compound 0.3162 µM), 0.674; with Nelarabine + Bortezomib (first compound 0.01 µM) it was 1.95; with Nelarabine + Bortezomib (first compound 0.03162 µM) it was 0.968. Further, the relative viability amounted to 1.33 with Nelarabine + Bortezomib (first compound 0.1 µM); 1.23 with Nelarabine + Bortezomib (first compound 0.3162 µM); 1.13 in the assay with Nelarabine + Bortezomib (first compound 1 µM); 0.387 with Adavosertib + Trametinib (first compound 0.01 µM); 0.353 with Adavosertib + Trametinib (first compound 0.03162 µM); 0.352 with Adavosertib + Trametinib (first compound 0.1 µM). Further, the relative viability with Adavosertib + Trametinib (first compound 0.3162 µM) turned out to be 0.344; with Nelarabine + Vorinostat (first compound 0.01 µM), 0.582; with Nelarabine + Vorinostat (first compound 0.03162 µM), 0.343; with Nelarabine + Vorinostat (first compound 0.1 µM), 0.391; with Nelarabine + Vorinostat (first compound 0.3162 µM), 0.47; in the assay with Nelarabine + Vorinostat (first compound 1 µM), 0.339.
